Experiments:
BRD4 (BD1) = molecular target: T1, BRD4 (BD1) (Homo sapiens, UniProt O60885); assay: Binding assay BRD4/acetylated peptide H4 (TR-FRET protein-protein interaction assay)
T1 construct: with relatively long constructs also being possible, preferably amino acids 44-168; made in house; host or cells: E. coli
Procedure, shortened: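 His6-BRD4 BD1 (aa 67-152, E. coli), usually 10 nM, with biotinylated tetra-acetylated H4 peptide in HEPES pH 7.5 buffer; 11 compound concentrations 0.1 nM–20 μM in duplicate, 10 min preincubation, 1 h at 22 °C then ≥3 h at 4 °C. TR-FRET 665/620 ratio; IC50 by 4-parameter fit.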

MOLM-13 cells = assay: Cell proliferation assay (alamarBlue), MOLM-13; assay type: cell-based; conditions: Homo sapiens, 96 hours incubation, inhibition of cell proliferation
Protocol: In accordance with the invention, the capability of the substances to inhibit cell proliferation was determined Cell viability was determined using the alamarBlue® reagent (Invitrogen) in a Victor X3 Multilabel Reader (Perkin Elmer). The excitation wavelength was 530 nm and the emission wavelenth […].
The MOLM-13 cells (DSMZ, ACC 554) were sown at a concentration of 4000 cells/well in 100 μl growth medium (RPMI1640, 10% FCS) on 96-well microtitre plates.
After an overnight incubation at 37° C., the fluorescence values (CI values) were determined. The plates were then treated with various substance dilutions (1E-5 M, 3E-6 M, 1E-6M, 3E-7 M, 1E-7 M, 3E-8 M, 1E-8 M) and incubated at 37° C. for 72 (MV4-11-, LOX-IMVI cells), 96 (MOLM-13-, B16F10-, MDA-MB-431-, Caov-3 cells), 120 (MOLP-8-, KMS-12-PE cells) or 168 (LAPC-4 cells) hours. The fluorescence values (CO values) were then determined. For the data analysis, the CI values were subtracted from the CO values and the results were compared between cells treated with different dilutions of the substance or with buffer solution only. These were used to calculate the IC 50 values (substance concentration required for 50% inhibition of cell proliferation).

Row | Compound | IC50 (BRD4 (BD1)) [nM] | IC50 (MOLM-13 cells) [nM]
1 | CNC(=O)N1N=C(c2ccc(N3CCCOC3=O)cc2)c2cc(OC)c(OC)cc2CC1C (racemic) [Example 38, (±)-7,8-dimethoxy-N,4-dimethyl-1-[4-(2-oxo-1,3-oxazinan-3-yl)phenyl]-4,5-dihydro-3H-2,3-benzodiazepine-3-carboxamide] | 120 | 730
2 | CNC(=O)N1N=C(c2ccc(N3CCCC3=O)cc2)c2cc(OC)c(OC)cc2CC1C (racemic) [Example 39, (±)-7,8-dimethoxy-N,4-dimethyl-1-[4-(2-oxopyrrolidin-1-yl)phenyl]-4,5-dihydro-3H-2,3-benzodiazepine-3-carboxamide] | 80 | 700
3 | CNC(=O)N1N=C(c2ccc(N3CCOCC3=O)cc2)c2cc(OC)c(OC)cc2CC1C (racemic) [Example 40, (±)-7,8-dimethoxy-N,4-dimethyl-1-[4-(3-oxomorpholin-4-yl)phenyl]-4,5-dihydro-3H-2,3-benzodiazepine-3-carboxamide] | 280 | 1470
4 | CNC(=O)N1N=C(c2ccc(N3CC(C)OCC3=O)cc2)c2cc(OC)c(OC)cc2CC1C (racemic) [Example 41, (±)-7,8-dimethoxy-N,4-dimethyl-1-[4-(2-methyl-5-oxomorpholin-4-yl)phenyl]-4,5-dihydro-3H-2,3-benzodiazepine-3-carboxamide] | 260 | 1350
5 | CNC(=O)N1N=C(c2ccc(N3CCOC(C)C3=O)cc2)c2cc(OC)c(OC)cc2CC1C (racemic) [Example 42, (±)-7,8-dimethoxy-N,4-dimethyl-1-[4-(2-methyl-3-oxomorpholin-4-yl)phenyl]-4,5-dihydro-3H-2,3-benzodiazepine-3-carboxamide] | 200 | 1290
6 | CNC(=O)N1N=C(c2ccc(N3CCN(C)CC3=O)cc2)c2cc(OC)c(OC)cc2CC1C (racemic) [Example 43, (±)-7,8-dimethoxy-N,4-dimethyl-1-[4-(4-methyl-2-oxopiperazin-1-yl)phenyl]-4,5-dihydro-3H-2,3-benzodiazepine-3-carboxamide] | 300 | 840
7 | CNC(=O)N1N=C(c2ccc(N3CCNCC3=O)cc2)c2cc(OC)c(OC)cc2CC1C (racemic) [Example 44, (±)-7,8-Dimethoxy-N,4-dimethyl-1-[4-(2-oxopiperazin-1-yl)phenyl]-4,5-dihydro-3H-2,3-benzodiazepine-3-carboxamide] | 50 | 210
8 | CNC(=O)N1N=C(c2ccc(-c3cnc(C)n3C)cc2)c2cc(OC)c(OC)cc2CC1C (racemic) [Example 47, (±)-1-[4-(1,2-dimethyl-1H-imidazol-5-yl)phenyl]-7,8-dimethoxy-N-dimethyl-4,5-dihydro-3H-2,3-benzodiazepine-3-carboxamide] | 110 | 530
9 | CNC(=O)N1N=C(c2ccc(-c3ccc(O)nc3)cc2)c2cc(OC)c(OC)cc2CC1C (racemic) [Example 49, (±)-1-[4-(6-hydroxypyridin-3-yl)phenyl]-7,8-dimethoxy-N,4-dimethyl-4,5-dihydro-3H-2,3-benzodiazepine-3-carboxamide] | 40 | 420
10 | CNC(=O)N1N=C(c2ccc(-c3ccc(C(F)(F)F)nc3)cc2)c2cc(OC)c(OC)cc2CC1C (racemic) [Example 50, (±)-7,8-dimethoxy-N,4-dimethyl-1-{4-[6-(trifluoromethyl)pyridin-3-yl]phenyl}-4,5-dihydro-3H-2,3-benzodiazepine-3-carboxamide] | 150 | 560
11 | CNC(=O)N1N=C(c2cccc(-c3c(C)nn(C)c3C)c2)c2cc(OC)c(OC)cc2CC1C (racemic) [Example 53, (±)-7,8-dimethoxy-N,4-dimethyl-1-[3-(1,3,5-trimethyl-1H-pyrazol-4-yl)phenyl]-4,5-dihydro-3H-2,3-benzodiazepine-3-carboxamide] | 40 | 350
12 | CNC(=O)N1N=C(c2cccc(-c3cnn(C)c3)c2)c2cc(OC)c(OC)cc2CC1C (racemic) [Example 54, (±)-7,8-dimethoxy-N,4-dimethyl-1-[3-(1-methyl-1H-pyrazol-4-yl)phenyl]-4,5-dihydro-3H-2,3-benzodiazepine-3-carboxamide] | 50 | 440
13 | CNC(=O)N1N=C(c2cccc(-c3ccnn3C)c2)c2cc(OC)c(OC)cc2CC1C (racemic) [Example 55, (±)-7,8-dimethoxy-N,4-dimethyl-1-[3-(1-methyl-1H-pyrazol-5-yl)phenyl]-4,5-dihydro-3H-2,3-benzodiazepine-3-carboxamide] | 120 | 900
14 | CNC(=O)N1N=C(c2ccc(F)c(-c3c(C)nn(C)c3C)c2)c2cc(OC)c(OC)cc2CC1C (racemic) [Example 56, (±)-1-[4-fluoro-3-(1,3,5-trimethyl-1H-pyrazol-4-yl)phenyl]-7,8-dimethoxy-N,4-dimethyl-4,5-dihydro-3H-2,3-benzodiazepine-3-carboxamide] | 180 | 900
15 | CNC(=O)N1N=C(c2ccc(F)c(-c3cnn(C)c3)c2)c2cc(OC)c(OC)cc2CC1C (racemic) [Example 57, (±)-1-[4-fluoro-3-(1-methyl-1H-pyrazol-4-yl)phenyl]-7,8-dimethoxy-N,4-dimethyl-4,5-dihydro-3H-2,3-benzodiazepine-3-carboxamide] | 90 | 790
16 | CNC(=O)N1N=C(c2ccc(F)c(-c3c(C)noc3C)c2)c2cc(OC)c(OC)cc2CC1C (racemic) [Example 58, (±)-1-[3-(3,5-dimethylisoxazol-4-yl)-4-fluoroophenyl]-7,8-dimethoxy-N,4-dimethyl-4,5-dihydro-3H-2,3-benzodiazepine-3-carboxamide] | 250 | 990
17 | CNC(=O)N1N=C(c2ccc(-c3cccc([N+](=O)[O-])c3)cc2)c2cc(OC)c(OC)cc2CC1C (racemic) [Example 59, (±)-7,8-dimethoxy-N,4-dimethyl-1-(3′-nitrobiphenyl-4-yl)-4,5-dihydro-3H-2,3-benzodiazepine-3-carboxamide] | 70 | 620
18 | CNC(=O)N1N=C(c2ccc(-c3ccccc3)cc2)c2cc(OC)c(OC)cc2CC1C (racemic) [Example 60, (±)-1-(biphenyl-4-yl)-7,8-dimethoxy-N,4-dimethyl-4,5-dihydro-3H-2,3-benzodiazepine-3-carboxamide] | 80 | 480
19 | CNC(=O)N1N=C(c2ccc(-c3ccc(Cl)cc3Cl)cc2)c2cc(OC)c(OC)cc2CC1C (racemic) [Example 61, (±)-1-(2′,4′-dichlorobiphenyl-4-yl)-7,8-dimethoxy-N,4-dimethyl-4,5-dihydro-3H-2,3-benzodiazepine-3-carboxamide] | 570 | 2110
20 | CNC(=O)N1N=C(c2ccc(-c3ccc(F)cc3)cc2)c2cc(OC)c(OC)cc2CC1C (racemic) [Example 62, (±)-1-(4′-fluorobiphenyl-4-yl)-7,8-dimethoxy-N,4-dimethyl-4,5-dihydro-3H-2,3-benzodiazepine-3-carboxamide] | 60 | 650
21 | CNC(=O)N1N=C(c2ccc(-c3ccc(Cl)cc3)cc2)c2cc(OC)c(OC)cc2CC1C (racemic) [Example 63, (±)-1-(4′-chlorobiphenyl-4-yl)-7,8-dimethoxy-N,4-dimethyl-4,5-dihydro-3H-2,3-benzodiazepine-3-carboxamide] | 170 | 770
22 | CNC(=O)N1N=C(c2ccc(-c3ccc(C)cc3)cc2)c2cc(OC)c(OC)cc2CC1C (racemic) [Example 64, (±)-7,8-dimethoxy-N,4-dimethyl-1-(4′-methylbiphenyl-4-yl)-4,5-dihydro-3H-2,3-benzodiazepine-3-carboxamide] | 110 | 880
23 | CNC(=O)N1N=C(c2ccc(-c3ccc(OC)cc3)cc2)c2cc(OC)c(OC)cc2CC1C (racemic) [Example 65, (±)-7,8-dimethoxy-1-(4′-methoxybiphenyl-4-yl)-N,4-dimethyl-4,5-dihydro-3H-2,3-benzodiazepine-3-carboxamide] | 100 | 630
24 | CNC(=O)N1N=C(c2ccc(-c3ccc(OC)nc3)cc2)c2cc(OC)c(OC)cc2CC1C (racemic) [Example 66, (±)-7,8-dimethoxy-1-[4-(6-methoxypyridin-3-yl)phenyl]-N,4-dimethyl-4,5-dihydro-3H-2,3-benzodiazepine-3-carboxamide] | 70 | 630
25 | CNC(=O)N1N=C(c2ccc(-c3ccc([S+](C)[O-])cc3)cc2)c2cc(OC)c(OC)cc2CC1C (racemic) [Example 67, (±)-7,8-dimethoxy-N,4-dimethyl-1-[4′-(methylsulphinyl)biphenyl-4-yl]-4,5-dihydro-3H-2,3-benzodiazepine-3-carboxamide] | 40 | 470

Source: patent publication US9890147B2 (BAYER PHARMA AKTIENGESELLSCHAFT, priority 2012, dated 2018)
